Source: patent publication US20180245049A1, “METHOD FOR INDUCING DIFFERENTIATION OF STEM CELLS” (STICHTING KATHOLIEKE UNIVERSITEIT, priority 2015, published 2018)

Key:
hMSCs [1] = assay: Lineage commitment and differentiation of gel-encapsulated hMSCs in bipotential differentiation medium (STRO-1, Osterix, Oil-red O staining); format: cell-based, human
Procedure: Cell Culture. Human Mesenchymal Stem Cells (hMSCs) were obtained from Lonza, Inc. (Switzerland). Cells were then cultured in α-MEM medium (lnvitrogen) supplemented with 10% fetal bovine serum (FBS), 1% penicillin/streptomycin and incubated in a humidified atmosphere containing 5% (v/v) CO2 at 37° C. For the encapsulation of cells in the gels, first, the cell pellets were obtained by centrifugation. Then 500 μL of the cold polymer solution (˜10° C.) was added directly to the pellet, followed by a gentle pipetting up and down 3-4 times to ensure a homogeneous mixture that was directly put onto a cover slip in a 6-well plate (also kept cold). Thereafter, the solution was sandwiched between two cover slips and the well plate was transferred to a 37° C. incubator. The volume of the suspension was chosen (500 μL) in order to obtain hydrogel thickness in the range of 3 mm. […] Afterwards, the gel becomes stiffer with time and attains the final stiffness in 2-3 minutes. This favors the supporting of cells in 3D rather than the cells settling at the bottom. After gel formation, the two cover slips were removed and α-MEM medium (without serum) was added. All cell culture experiments were carried out without any serum in the medium for the first 6 h of culture. Then, α-MEM medium with 10% serum was added. All cells were used at low passage numbers (≤passage 4), were subconfluently cultured and were seeded at 10^6 cells/mL for the purpose of the experiments and in order to avoid cell-cell contacts. The lineage commitment and differentiation of the gel encapsulated hMSCs after 96 h and 3 weeks of culture, respectively, were investigated with bipotential differentiation medium (1:1 v/v osteogenic and adipogenic media, Lonza). For all the experiments, a non-functionalized soft polymer gel (cell culture in growth medium) served as control. […] The pharmacological agents used were 50 μM Blebbistatin (EMD Biosciences-Calbiochem), 1 μM cytochalasin D (Sigma) and 50 nM Taxol (Abcam). The hMSCs were exposed to each pharmacological agent for 1 h, 24 h and 72 h, respectively, after seeding on a modified polymer. For antibody inhibition studies, cells were preincubated with 5 ng/mL anti-α1, 2, 3 and 5-β1, 2 (all from Santa Cruz Biotechnology). For competition experiments with soluble RGD peptides, the cells were incubated in 1 mL of cell culture media containing 200 μg of RGDS peptides during 20 min on plastic and then transferred to the polymer gels. To evaluate proliferation, total double-stranded DNA content was determined by using the PicoGreen assay as previously reported.
Immunostaining. […]

hMSCs [2] = assay: Live/dead assay (calcein-AM and MTT) of gel-encapsulated cells; format: cell-based, human; conditions: live/dead assay after 48 h and 96 h of culture, 50 nM
Procedure: Cell Culture. Human Mesenchymal Stem Cells (hMSCs) were obtained from Lonza, Inc. (Switzerland). Cells were then cultured in α-MEM medium (lnvitrogen) supplemented with 10% fetal bovine serum (FBS), 1% penicillin/streptomycin and incubated in a humidified atmosphere containing 5% (v/v) CO2 at 37° C. For the encapsulation of cells in the gels, first, the cell pellets were obtained by centrifugation. Then 500 μL of the cold polymer solution (˜10° C.) was added directly to the pellet, followed by a gentle pipetting up and down 3-4 times to ensure a homogeneous mixture that was directly put onto a cover slip in a 6-well plate (also kept cold). Thereafter, the solution was sandwiched between two cover slips and the well plate was transferred to a 37° C. incubator. The volume of the suspension was chosen (500 μL) in order to obtain hydrogel thickness in the range of 3 mm. […] To evaluate proliferation, total double-stranded DNA content was determined by using the PicoGreen assay as previously reported.
MTT Assay. As described in literature, briefly, cell viability was determined by the 3-(4,5-dimethylthiazol-2-yl)-2,5-diphenyltetrazolium bromide (MTT) assay and the data are presented as a percentage of control viability.
Live/Dead Staining. Cell viability was determined with the live/dead viability/cytotoxicity kit (Molecular Probes), according to the manufacturer's protocol.

CC(=O)O[C@H]1C(=O)[C@@]2(C)[C@H]([C@H](OC(=O)c3ccccc3)[C@]3(O)C[C@H](OC(=O)[C@H](O)[C@@H](NC(=O)c4ccccc4)c4ccccc4)C(C)=C1C3(C)C)[C@]1(OC(C)=O)CO[C@@H]1C[C@@H]2O [Taxol]
hMSCs commitment after Taxol treatment (hMSCs [1]; 50 nM): decrease in hMSCs commitment | cell viability after Taxol treatment (hMSCs [2]): did not affect cell viability

Cc1ccc2c(c1)C(=O)C1(O)CCN(c3ccccc3)C1=N2 (centres unmarked) [blebbistatin]
STRO-1 in encapsulated cells in presence of blebbistatin (hMSCs [1]; 50 μM, all the polymer gels): high levels of STRO-1 | hMSCs commitment in presence of blebbistatin (hMSCs [1]; 50 μM, all the polymer gels): inhibited the hMSCs commitment

C=C1[C@@H](C)[C@H]2[C@H](Cc3ccccc3)NC(=O)[C@]23[C@H](OC(C)=O)/C=C/[C@@](C)(O)C(=O)[C@@H](C)C/C=C/[C@H]3[C@@H]1O [cytochalasin-D]
hMSCs commitment after cytochalasin-D treatment (hMSCs [1]; 1 μM, towards both osteogenesis and adipogenesis): overall decreased commitment
